Structures can show the parent of a compound that is named as a salt.
Columns and labels:
Assay in all cases: Growth inhibition test (MTT) for cytotoxic properties
Settings in all cases: Table 1b
B 16 F 10 = format: cell-based, mouse
Protocol: Growth Inhibition Test for Determination of the Cytotoxic Properties of Glycoconjugates of Batracyline and of Quinolone-a
The human colon cell lines SW 480 and HT 29 (ATCC no. CCL 228 and HBT-38) and the mouse melanoma cell line B 16 F 10 were cultured in Roux dishes in RPMI 1640 medium with addition of 10% FCS. The cultures were then trypsinized and taken up in RPMI plus 10% FCS to a cell count of 50,000 cells/ml. 100 μl of cell suspension/well were introduced into a 96 microwell plate and incubated for 1 day at 37° C. in a CO2 incubating cabinet. A further 100 μl of RPMI medium and 1 μl of dimethyl sulphoxide with the test substances were then added. The growth was checked after day 3 and day 6. 40 μl of MTT solution (3-(4,5-dimethylthiazol-2-yl)-2,5-diphenyltetrazoline bromide) with an initial concentration of 5 mg/ml of H2 O were added to each microwave. The plate was incubated for 5 hours in a CO2 incubating cabinet at 37° C. The medium was then sucked off and 100 μl of i-propanol/well were added. After shaking for 30 minutes with 100 μl of H2 O, the extinction was measured at 540 nm with a Titertek Multiskan MCC/340 (Flow).

HT 29 = format: cell-based, human
Summary of the method: (§1)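 SW 480 and HT 29 cells in RPMI 1640 with 10% FCS were seeded at 50,000 cells/ml, grown 1 day at 37 °C, then exposed to compound added in DMSO. MTT (5 mg/ml stock) was applied after day 3 and day 6 for 5 h, and formazan absorbance was read at 540 nm. IC50 values reported.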

SW 480 = format: cell-based, human
Summary of the method: as §1

SMILES | IC50 (B 16 F 10) | IC50 (HT 29) | IC50 (SW 480)
C[C@@H]1O[C@H](Oc2ccc(NC(=S)NCCCC[C@H](NC(=S)Nc3ccc(O[C@H]4O[C@@H](C)[C@@H](O)[C@@H](OCC(=O)O)[C@@H]4O)cc3)C(=O)NC3C=CCC4CN(c5c(F)cc6c(=O)c(C(=O)O)cn(C7CC7)c6c5Cl)CC43)cc2)[C@@H](O)[C@H](OCC(=O)O)[C@@H]1O (stereo partly drawn) [Example 11.8, N-{N^α,N^ε -Bis-[O-(3-O-carboxymethyl-β-L-fucosyl)-4-hydroxy-phenylamino-thiocarbonyl]-lysyl}-quinolone-a, di-sodium salt] | 15 µM | 16 µM | 12 µM
C[C@@H]1O[C@H](Oc2ccc(NC(=S)NCCCC[C@@H](NC(=S)Nc3ccc(O[C@H]4O[C@@H](C)[C@@H](O)[C@@H](OCC(=O)O)[C@@H]4O)cc3)C(=O)NC3C=CCC4CN(c5c(F)cc6c(=O)c(C(=O)O)cn(C7CC7)c6c5Cl)CC43)cc2)[C@@H](O)[C@H](OCC(=O)O)[C@@H]1O (stereo partly drawn) [Example 11.9, N-{N^α,N^ε -Bis-[O-(3-O-carboxymethyl-β-L-fucosyl)-4-hydroxy-phenylamino-thiocarbonyl]-D-lysyl}-quinolone-a, di-sodium salt] | 9 µM | 12 µM | 12 µM
CO[C@H]1[C@H](O)[C@H](Oc2ccc(NC(=S)NCCCC[C@@H](NC(=S)Nc3ccc(O[C@@H]4O[C@@H](C)[C@@H](O)[C@@H](OC)[C@@H]4O)cc3)C(=O)NC3C=CCC4CN(c5c(F)cc6c(=O)c(C(=O)O)cn(C7CC7)c6c5Cl)CC43)cc2)O[C@@H](C)[C@H]1O (stereo partly drawn) [Example 11.10, N-{N^α,N^ε -Bis-[O-(3-O-methyl-α-L-fucosyl)-4hydroxy-phenylamino-thiocarbonyl]-D-lysyl}-quinolone-a] | 2 µM | 20 µM | 8 µM
CO[C@H]1[C@@H](O)[C@@H](CO)O[C@@H](Oc2ccc(NC(=S)NCCCC[C@@H](NC(=S)Nc3ccc(O[C@@H]4O[C@H](CO)[C@H](O)[C@H](OC)[C@H]4O)cc3)C(=O)NC3C=CCC4CN(c5c(F)cc6c(=O)c(C(=O)O)cn(C7CC7)c6c5Cl)CC43)cc2)[C@@H]1O (stereo partly drawn) [Example 11.16, N-{N^α,N^ε -Bis-[O-(3-O-methyl-β-D-galactopyranosyl)-4-hydroxy-phenylamino-thiocarbonyl]-D-lysyl}-quinolone, sodium salt] | 1.5 µM | 10 µM | 10 µM
CO[C@@H]1[C@H](O)[C@@H](Oc2ccc(NC(=S)NCCCC[C@@H](NC(=S)Nc3ccc(O[C@H]4O[C@H](CO)[C@@H](O)[C@H](OC)[C@@H]4O)cc3)C(=O)NC3C=CCC4CN(c5c(F)cc6c(=O)c(C(=O)O)cn(C7CC7)c6c5Cl)CC43)cc2)O[C@H](CO)[C@H]1O (stereo partly drawn) [Example 11.17, N-{N^α,N^ε -Bis-[O-(3-O-methyl-α-D-mannopyranosyl)-4-hydroxy-phenylamino-thiocarbonyl]-D-lysyl}-quinolone-a, sodium salt] | 8 µM | 75 µM | 75 µM
CO[C@H]1[C@@H](O)[C@@H](CO)O[C@@H](O[C@H]2[C@H](O)[C@@H](O)[C@H](Oc3ccc(NC(=S)NCCCC[C@@H](NC(=S)Nc4ccc(O[C@@H]5O[C@H](CO)[C@@H](O[C@@H]6O[C@H](CO)[C@H](O)[C@H](OC)[C@H]6O)[C@H](O)[C@H]5O)cc4)C(=O)NC4C=CCC5CN(c6c(F)cc7c(=O)c(C(=O)O)cn(C8CC8)c7c6Cl)CC54)cc3)O[C@@H]2CO)[C@@H]1O (stereo partly drawn) [Example 11.18, N-{N^α,N^ε -Bis-[O-(4-O-(3'-O-methyl-β-D-galactopyranosyl)-β-D-glucopyranosyl)-4-hydroxy-phenylamino-thiocarbonyl]-D-lysyl}-quinolone-a, sodium salt] | 0.5 µM | 3.5 µM | 4.5 µM
CC(NC(=O)C(CCCCN)NC(=S)Nc1ccc(OC2OC(C)C(O)C(OCC(=O)O)C2O)cc1)C(=O)NC1C=CCC2CN(c3c(F)cc4c(=O)c(C(=O)O)cn(C5CC5)c4c3Cl)CC21 [Example 12.7, N-{N^α -[O-(3-O-Carboxymethyl-β-L-fucosyl)-4-hydroxy-phenylamino-thiocarbonyl]-lysyl-D-alanyl}-quinolone-a] | 20 µM | > 250 µM | 60 µM
COC[C@H]1O[C@@H](Oc2ccc(NC(=S)N[C@@H](CCCCN)C(=O)NC3C=CCC4CN(c5c(F)cc6c(=O)c(C(=O)O)cn(C7CC7)c6c5Cl)CC43)cc2)[C@H](O)[C@@H](OC)[C@H]1O (stereo partly drawn) [Example 12.9, N-{N^α -[O-(3,6-Di-O-methyl-β-D-galactopyranosyl)-4-hydroxy-phenylamino-thiocarbonyl]-lysyl}-quinolone-a, hydrochloride] | 2 µM | 8 µM | 4 µM
CO[C@@H]1[C@H](O)[C@@H](Oc2ccc(NC(=S)N[C@@H](CCCCN)C(=O)NC3C=CCC4CN(c5c(F)cc6c(=O)c(C(=O)O)cn(C7CC7)c6c5Cl)CC43)cc2)O[C@H](CO)[C@H]1O (stereo partly drawn) [Example 12.10, N-{N^α -[O-(3-O-Methyl-α-D-mannopyranosyl)-4-hydroxy-phenylamino-thio-carbonyl]-lysyl}-quinolone-a, hydrochloride] | 4 µM | 15 µM | 15 µM
COC1C(O)C(CO)OC(OC2C(CO)OC(Oc3ccc(NC(=S)NC(CCCCN)C(=O)NC4C=CCC5CN(c6c(F)cc7c(=O)c(C(=O)O)cn(C8CC8)c7c6Cl)CC54)cc3)C(O)C2O)C1O [Example 12.11, N-{N^α -[O-(4-O-(3'-O-Methyl-β-D-galactopyranosyl)-β-D-glucopyranosyl)-4-hydroxy-phenylamino-thiocarbonyl]-lysyl}-quinolone-a hydrochloride] | 0.5 µM | 2 µM | 2 µM
COC1C(O)C(C)OC(Oc2ccc(NC(=S)NC3C=CCC4CN(c5c(F)cc6c(=O)c(C(=O)O)cn(C7CC7)c6c5Cl)CC43)cc2)C1O [Example 12.13, N-[O-(3-O-Methyl-β-L-fucosyl)-4-hydroxy-phenylamino-thiocarbonyl]-quin olone-a] | 1 µM | 100 µM | 35 µM
COC1C(O)C(C)OC(Oc2ccc(NC(=S)NC(CN)C(=O)NC3C=CCC4CN(c5c(F)cc6c(=O)c(C(=O)O)cn(C7CC7)c6c5Cl)CC43)cc2)C1O [Example 12.15, N-{N^α -[O-(3-O-Methyl-β-L-fucosyl)-4-hydroxy-phenylamino-thiocarbonyl]-diamino-propionoyl)-quinolone-a, hydrochloride] | 0.1 µM | 1 µM | 0.3 µM
COC1C(O)C(C)OC(Oc2ccc(NC(=S)NC(C)C(=O)NC(Cc3ccc(N(CCCl)CCCl)cc3)C(=O)O)cc2)C1O (stereo not drawn) [Example 16.1] | 200 µM | 100 µM | 50 µM
COC1C(O)C(C)OC(Oc2ccc(NC(=S)NC(C)C(=O)NC(C)C(=O)NC(Cc3ccc(N(CCCl)CCCl)cc3)C(=O)O)cc2)C1O [Example 16.2, N-{N'-[O-(3-O-Methyl-β-L-fucopyranosyl)-4-hydroxy-phenylamino-thiocarbonyl]-alanyl-alanyl}-melphalan] | 80 µM | 60 µM | 50 µM
COc1cccc2c1C(=O)c1c(O)c3c(c(O)c1C2=O)CC(O)(C(=O)CO)CC3OC1CC(NC(=O)C(C)NC(=O)C(C)NC(=S)Nc2ccc(OC3OC(C)C(O)C(OC)C3O)cc2)C(O)C(C)O1 [Example 17.1, N-{N'-[O-(3--Methyl-β-L-fucopyranosyl)-4-hydroxy-phenylamino-thiocarbonyl]-alanyl-alanyl}-doxorubicin] | 5 µM | 5 µM | 10 µM

Source: patent US6271342A, “Sugar-modified cytostatics” (Bayer Aktiengesellschaft, priority 1995, dated 2001)
